Laboratory results published in patent US12195460B2, “Pyrido-[3,4-d]pyridazine amine derivatives useful as NLRP3 inhibitors” (Ventus Therapeutics U.S., Inc., priority 2022, dated 2025).

Test: Brain levels (Kp and Kpu,u) in mice after oral administration
Format: in vivo, CDI mice
Details: 20 mpk PO; for kpu, u: kp corrected with mouse plasma protein binding and mouse brain homogenate binding; for Kp at 24 h: CDI, mouse, 20 mg/kg, whole brain AUC over 24 h divided by plasma AUC
Method: Brain Levels (Kp and Kpu,u)—NLRP3
The in vivo total brain to plasma ratio was assessed in CDI mice after oral administration of the compound. Blood was collected at several timepoints up to 24 h, and transferred into plastic micro centrifuge tubes with EDTA-K2 as anticoagulant. Blood samples were centrifuged at 4000 g for 5 minutes at 4° C. to obtain plasma, then immediately frozen and stored at −75±15° C. prior to analysis. Animals were terminally anaesthetized with a rising concentration of CO2 gas at about 1 minute. At selected timepoints, whole brains were removed from the skull, rinsed in cold PBS to remove blood, dried with clean gauze, then frozen in liquid nitrogen and kept at −75±15° C. before analysis. At the time of analysis, brain samples were homogenized with PBS by tissue weight (g) to PBS volume (mL) ratio 1:3. Plasma and brain drug levels were quantified by LC/MS/MS on a AB Sciex Triple Quad 5500+ instrument, after separation on a HALO 160A ES-C18, 2.7 μm 2.1×50 mm column. Quantitation was performed using a calibration curve prepared in blank plasma or blank brain homogenate. The software WinNonlin (Phoenix™) was used for pharmacokinetic analysis from the concentrations versus time data, including the AUCinf and AUClast. The Kp ratio (total brain concentration over total plasma concentration) was calculated as (AUCtot,hr)/(AUCtot,pl).
The unbound brain exposure was assessed as Kpuu, which is the free brain/free plasma concentration ratio (Cu,hr/Cu,pl). The Cu,bt/Cu,pl ratios were obtained from in vivo total brain to plasma ratios (Ctot,br/Ctot,pl) by using in vitro determined Fu,br and Fu,pl.
Plasma protein binding and brain homogenate protein binding were measured by equilibrium dialysis in a HTDialysis plate. The dialysis membranes were soaked in ultrapure water for 60 minutes to separate strips, then in 20% ethanol for 20 minutes, finally in dialysis buffer for 20 minutes. The dialysis set up was assembled according to the manufacturer's instruction. Each cell received 150 μL of plasma or brain homogenate spiked with 1 μM of compound, and dialyzed against an equal volume of dialysis buffer (PBS). The dialysis plate was sealed and incubated in an incubator at 37° C. with 5% CO2 at 100 rpm for 6 hours. At the end of incubation, compound concentration was measured in both chambers by LC-MS/MS on a Triple Quad™ 5500 from AB Inc after separation on a XSelect Hss T3 2.5μ (2.1×30 mm) column. Free fraction (Fu) was calculated as (Peak Area Ratio buffer chamber/Peak Area Ratio plasma chamber).
Finally, Kpuu was calculated as (AUCtot,br×Fu,bt)/(AUCtot,pl×Fu,pl).
Table 3 assigns each compound a code for kp and kpu,u values: A or B. According to the code, A represents a value of >0.3 and B represents a value of <0.3. […] The kpu,u was then calculated upon correcting this kp value with mouse plasma protein binding and mouse brain homogenates binding.

Row | SMILES | kpu, u | Kp at 24 h
1 | CC1(C)COC[C@@H]1Nc1nnc(-c2ccc(Cl)cc2O)c2ccncc12 [Compound 1, (R)-5-chloro-2-(4-((4,4-dimethyltetrahydrofuran-3-yl)amino)pyrido[3,4-d]pyridazin-1-yl)phenol] | A (A represents a value of >0.3) | –
2 | CC1(C)COCC[C@H]1Nc1nnc(-c2ccc(Cl)cc2O)c2ccncc12 [Compound 3, (R)-5-chloro-2-(4-((3,3-dimethyltetrahydro-2H-pyran-4-yl)amino)pyrido[3,4-d]pyridazin-1-yl)phenol] | A (A represents a value of >0.3) | > 0.3
3 | Oc1cc(Cl)ccc1-c1nnc(N[C@H]2CCOC2)c2cnccc12 [Compound 7, (S)-5-chloro-2-(4-((tetrahydrofuran-3-yl)amino)pyrido[3,4-d]pyridazin-1-yl)phenol, reference compound] | B (B represents a value of <0.3) | –

The next lines start with the values.

Row | kpu, u | Kp at 24 h | SMILES
4 | A (A represents a value of >0.3) | > 0.3 | [2H]C([2H])([2H])OC(C)(C)CNc1nnc(-c2ccc(C(F)F)cc2O)c2ccncc12 [Compound 2, 5-(difluoromethyl)-2-(4-((2-(methoxy-d3)-2-methylpropyl)amino)pyrido[3,4-d]pyridazin-1-yl)phenol]
5 | A (A represents a value of >0.3) | – | CC1(C)C[C@@H](Nc2nnc(-c3ccc(Cl)cc3O)c3ccncc23)CCO1 [Compound 4, (S)-5-chloro-2-(4-((2,2-dimethyltetrahydro-2H-pyran-4-yl)amino)pyrido[3,4-d]pyridazin-1-yl)phenol]
6 | A (A represents a value of >0.3) | > 0.3 | Cc1ccc(-c2nnc(N[C@H]3COC(C)(C)C3)c3cnccc23)c(O)c1 [Compound 5, (R)-2-(4-((5,5-dimethyltetrahydrofuran-3-yl)amino)pyrido[3,4-d]pyridazin-1-yl)-5-methylphenol]
7 | A (A represents a value of >0.3) | – | CN1CCO[C@@H](CNc2nnc(-c3ccc(C(F)(F)F)cc3O)c3ccncc23)C1 [Compound 6, (S)-2-(4-(((4-methylmorpholin-2-yl)methyl)amino)pyrido[3,4-d]pyridazin-1-yl)-5-(trifluoromethyl)phenol]
8 | B (B represents a value of <0.3) | < 0.3 | OCC1(CNc2nnc(-c3ccc(Cl)cc3O)c3ccncc23)CC1 [Compound 8, 5-chloro-2-(4-(((1-(hydroxymethyl)cyclopropyl)methyl)amino)pyrido[3,4-d]pyridazin-1-yl)phenol, reference compound]
